Measurements from patent publication US20240182945A1, “PRODUCTS FOR REGULATION OF EUKARYOTIC AND MICROBIAL CELLS GROWTH” (priority 2021, published 2024).

Legend:
Format in all cases: cell-based
E. coli = assay: Growth of microbial modulator alone on antibiotic-supplemented Columbia agar; settings: Bacterial set #4; Amikacin (1 μg/mL); Columbia agar with erythrocytes 5%, 24 h at 37 C
[1] = system: bacteria of sputum from patients with lung diseases; assay: Sputum plated on 24-well plates with antibiotics at Cmax or C0-4 h, Algorithm #1 or #2; also: key: '+'—presence of bacterial growth, antibiotic ineffective; '−'—absence of bacterial growth, antibiotic effective
Description: Pathological material (sputum) from patients with lung diseases was plated into wells of 24-well plates filled with a nutrient medium supplemented with erythrocytes 5%, to which antibiotics were added taken at different concentrations.
Group #1—antibiotics were taken at concentrations close to a maximum (peak) concentration achievable at the site of infection Cmax
Algorithm #1. Lab technician, analyzed the appearance of bacterial growth by comparing the signs of bacterial growth in each well supplemented with antibiotic(s) at certain timepoint, with the signs of bacterial growth in the same well at previous time point(s).
Algorithm #2. Lab technician analyzed the appearance of bacterial growth by comparing the signs of bacterial growth in each well supplemented with antibiotic(s) with bacterial growth in antibiotic-free control

[2] = system: MIX—PP +BM (P. aeruginosa with microbial modulators); assay: Growth of mix PP + MM (original sputum) on antibiotic-supplemented Columbia agar; settings: Columbia agar with erythrocytes 5%, 24 h at 37 C
S. haemolyticus = assay: Growth of microbial modulator alone on antibiotic-supplemented Columbia agar; settings: Bacterial set #4; Amikacin (1 μg/mL); Columbia agar with erythrocytes 5%, 24 h at 37 C
[3] = system: bacteria of sputum from patients with lung diseases; assay: Standard antibiotic susceptibility study using the microbroth dilution method (Algorithm #3); also: key: '+'—presence of bacterial growth, antibiotic ineffective; '−'—absence of bacterial growth, antibiotic effective
From the text: Algorithm #3—Standard antibiotic susceptibility study using the microbroth dilution method.

P. aeruginosa = assay: Growth of primary pathogen alone on antibiotic-supplemented Columbia agar; settings: Columbia agar with erythrocytes 5%, 24 h at 37 C
Description: Four sputum samples from patients with lung infections were used. Pure bacterial culture of each microorganisms was obtained by routine microbiological methods.
In this case this antibiotic at MIC of 16 ug/mL was used in the following studies. PP alone, or Microbial Modulators (MM) alone or the original sputum were plated on the wells of 24 well plate filled with nutrient Columbia agar supplemented with erythrocytes 5% and supplemented with antibiotics taken as MIC determined against PP, but not more than 16 μg/mL and incubated 24 h at 37 C.

B. thailandensis = settings: Bacterial set #3; Ceftazidime (2 μg/mL); Columbia agar with erythrocytes 5%, 24 h at 37 C
S. aureus = assay: Growth of microbial modulator alone on antibiotic-supplemented Columbia agar; settings: Bacterial set #3; Ceftazidime (2 μg/mL); Columbia agar with erythrocytes 5%, 24 h at 37 C
[4] = Algorithm #1, antibiotic at C0-4 h
[5] = Algorithm #1, antibiotic at Cmax
[6] = Algorithm #2, antibiotic at C0-4 h
[7] = Algorithm #2, antibiotic at Cmax
[8] = Bacterial set #4, Amikacin (1 μg/mL)
[9] = Bacterial set #3, Ceftazidime (2 μg/mL)

| Compound | microbial growth, EC (BM alone) (E. coli) | ATB efficacy [1, 4] | ATB efficacy [1, 5] | ATB efficacy [1, 6] | ATB efficacy [1, 7] | Presence of PP in Mix (PP + MM) [2, 8] | microbial growth, SH (BM alone) (S. haemolyticus) | ATB efficacy [3] | microbial growth, PA (PP alone) (P. aeruginosa; [8]) | Presence of PP in Mix (PP + MM) [2, 9] | microbial growth, BT (BM alone) (B. thailandensis) | microbial growth, PA (PP alone) (P. aeruginosa; [9]) | microbial growth, SA (BM alone) (S. aureus) |
| --- | --- | --- | --- | --- | --- | --- | --- | --- | --- | --- | --- | --- | --- |
| NCC[C@H](O)C(=O)N[C@@H]1C[C@H](N)[C@@H](O[C@H]2O[C@H](CN)[C@@H](O)[C@H](O)[C@H]2O)[C@H](O)[C@H]1O[C@H]1O[C@H](CO)[C@@H](O)[C@H](N)[C@H]1O [Amikacin] | − | − | − | − | − | − | + | − | + |  |  |  |  |
| CC(C)(O/N=C(\C(=O)N[C@@H]1C(=O)N2C(C(=O)[O-])=C(C[n+]3ccccc3)CS[C@H]12)c1csc(N)n1)C(=O)O [Ceftazidime] |  | + | + | + | + |  |  | + |  | − | + | + | + |
